# Data published in paper PMC5218480 (PLoS ONE, 2017).
# Tested on: MV-4-11 cells
# Assay: Gene expression microarray analysis (Affymetrix PrimeView) and GSEA
# Type: cell-based, human
# Parameters: RFU PODN (11730768_x_at) / Fold change /veh PODN (11730768_x_at) / RFU LINC00158 (11744669_a_at) / Fold change /veh LINC00158 (11744669_a_at) / RFU DUSP10 (11751237_a_at) / Fold change /veh DUSP10 (11751237_a_at) / RFU ID3 (11757404_x_at) / Fold change /veh ID3 (11757404_x_at) / RFU PLEKHG5 (11737974_s_at) / Fold change /veh PLEKHG5 (11737974_s_at) / RFU LRRC4B (11730491_at) / Fold change /veh LRRC4B (11730491_at) / RFU GIMAP4 (11747438_a_at) / Fold change /veh GIMAP4 (11747438_a_at) / RFU KRT8 (11758183_x_at) / Fold change /veh KRT8 (11758183_x_at) / RFU CNN1 (11734310_a_at) / Fold change /veh CNN1 (11734310_a_at) / RFU VPS37D (11726825_at) / Fold change /veh VPS37D (11726825_at) / RFU C10orf10 (11716522_x_at) / Fold change /veh C10orf10 (11716522_x_at) / RFU KIR2DL2 /// KIR2DL4 /// KIR2DL5A /// KIR2DL5B /// KIR2DS1 /// KIR2DS2 /// KIR2DS3 /// KIR2DS4 /// KIR3DL3 /// KIR3DL3 /// KIR3DS1 (11738374_at) / Fold change /veh KIR2DL2 /// KIR2DL4 /// KIR2DL5A /// KIR2DL5B /// KIR2DS1 /// KIR2DS2 /// KIR2DS3 /// KIR2DS4 /// KIR3DL3 /// KIR3DL3 /// KIR3DS1 (11738374_at) / RFU C1QL1 (11718748_at) / Fold change /veh C1QL1 (11718748_at) / RFU TMPRSS4 (11747572_a_at) / Fold change /veh TMPRSS4 (11747572_a_at) / RFU HAMP (11756126_x_at) / Fold change /veh HAMP (11756126_x_at) / RFU RNFT2 (11725882_a_at) / Fold change /veh RNFT2 (11725882_a_at) / RFU NR4A2 (11747474_a_at) / Fold change /veh NR4A2 (11747474_a_at) / RFU ABCC12 (11746883_a_at) / Fold change /veh ABCC12 (11746883_a_at) / RFU TMEM136 (11760407_x_at) / Fold change /veh TMEM136 (11760407_x_at) / RFU CLDN22 /// WWC2 (11732394_at) / Fold change /veh CLDN22 /// WWC2 (11732394_at) / RFU HLA-DPB1 (11760878_x_at) / Fold change /veh HLA-DPB1 (11760878_x_at) / RFU SPINT1 (11716480_a_at) / Fold change /veh SPINT1 (11716480_a_at) / RFU GAP43 (11754022_s_at) / Fold change /veh GAP43 (11754022_s_at) / RFU A4GNT (11735810_at) / Fold change /veh A4GNT (11735810_at) / RFU PRB3 (11715151_x_at) / Fold change /veh PRB3 (11715151_x_at) / RFU TUBB4B (11761932_at) / Fold change /veh TUBB4B (11761932_at) / RFU CAPN14 (11732068_a_at) / Fold change /veh CAPN14 (11732068_a_at) / RFU TMCC2 (11721928_a_at) / Fold change /veh TMCC2 (11721928_a_at) / RFU IRGQ (11745062_a_at) / Fold change /veh IRGQ (11745062_a_at) / RFU FAM174B (11720279_a_at) / Fold change /veh FAM174B (11720279_a_at) / RFU TMPRSS4 (11748680_a_at) / Fold change /veh TMPRSS4 (11748680_a_at) / RFU FAM212B (11763350_a_at) / Fold change /veh FAM212B (11763350_a_at) / RFU PLEKHG5 (11743358_a_at) / Fold change /veh PLEKHG5 (11743358_a_at) / RFU ZSCAN30 (11745921_a_at) / Fold change /veh ZSCAN30 (11745921_a_at) / RFU CMKLR1 (11741424_a_at) / Fold change /veh CMKLR1 (11741424_a_at) / RFU LOC101060620 /// MAPK8IP1 (11723275_at) / Fold change /veh LOC101060620 /// MAPK8IP1 (11723275_at) / RFU SPTSSB (11747773_x_at) / Fold change /veh SPTSSB (11747773_x_at) / RFU PRSS12 (11739890_at) / Fold change /veh PRSS12 (11739890_at) / RFU BIN1 (11741810_x_at) / Fold change /veh BIN1 (11741810_x_at) / RFU WNT11 (11732464_a_at) / Fold change /veh WNT11 (11732464_a_at) / RFU C10orf10 (11716521_a_at) / Fold change /veh C10orf10 (11716521_a_at) / RFU C5orf56 (11738089_at) / Fold change /veh C5orf56 (11738089_at) / RFU CYB561 (11721691_x_at) / Fold change /veh CYB561 (11721691_x_at) / RFU ANKRD19P (11752326_a_at) / Fold change /veh ANKRD19P (11752326_a_at) / RFU OR2T12 /// OR2T33 /// OR2T8 (11738714_s_at) / Fold change /veh OR2T12 /// OR2T33 /// OR2T8 (11738714_s_at) / RFU VCAN (11748164_a_at) / Fold change /veh VCAN (11748164_a_at) / RFU JSRP1 (11732532_at) / Fold change /veh JSRP1 (11732532_at) / RFU KRTAP10-11 (11738290_x_at) / Fold change /veh KRTAP10-11 (11738290_x_at) / RFU MYO3A (11730013_a_at) / Fold change /veh MYO3A (11730013_a_at) / RFU EBF3 (11725865_a_at) / Fold change /veh EBF3 (11725865_a_at) / RFU CAMK2N1 (11719241_x_at) / Fold change /veh CAMK2N1 (11719241_x_at) / RFU C5orf56 (11738088_a_at) / Fold change /veh C5orf56 (11738088_a_at) / RFU OLFML3 (11715873_a_at) / Fold change /veh OLFML3 (11715873_a_at) / RFU LOC100653217 /// NTM (11731650_a_at) / Fold change /veh LOC100653217 /// NTM (11731650_a_at) / RFU MAPK11 (11762145_a_at) / Fold change /veh MAPK11 (11762145_a_at) / RFU FIZ1 (11724087_x_at) / Fold change /veh FIZ1 (11724087_x_at) / RFU OASL (11726364_x_at) / Fold change /veh OASL (11726364_x_at) / RFU SOX15 (11748057_x_at) / Fold change /veh SOX15 (11748057_x_at) / RFU CD79A (11719716_a_at) / Fold change /veh CD79A (11719716_a_at) / RFU HIST1H1D (11736915_at) / Fold change /veh HIST1H1D (11736915_at) / RFU CASKIN2 (11723855_a_at) / Fold change /veh CASKIN2 (11723855_a_at) / RFU LOC730098 (11760151_x_at) / Fold change /veh LOC730098 (11760151_x_at) / RFU OR4N2 (11742367_at) / Fold change /veh OR4N2 (11742367_at) / RFU PRRT2 (11749266_a_at) / Fold change /veh PRRT2 (11749266_a_at) / RFU SNX32 (11753110_a_at) / Fold change /veh SNX32 (11753110_a_at) / RFU CDHR5 (11726645_a_at) / Fold change /veh CDHR5 (11726645_a_at) / RFU RCAN1 (11760418_a_at) / Fold change /veh RCAN1 (11760418_a_at) / RFU FAM167A (11723789_a_at) / Fold change /veh FAM167A (11723789_a_at) / RFU FAM26E (11764081_at) / Fold change /veh FAM26E (11764081_at) / RFU ISYNA1 (11749810_s_at) / Fold change /veh ISYNA1 (11749810_s_at) / RFU ACY1 (11761880_at) / Fold change /veh ACY1 (11761880_at) / RFU 11764098_at / Fold change /veh 11764098_at / RFU SAMD14 (11745864_x_at) / Fold change /veh SAMD14 (11745864_x_at) / RFU NPB (11741838_a_at) / Fold change /veh NPB (11741838_a_at) / RFU TMPRSS6 (11731388_a_at) / Fold change /veh TMPRSS6 (11731388_a_at) / RFU KRTAP10-2 (11738614_at) / Fold change /veh KRTAP10-2 (11738614_at) / RFU ARHGAP8 /// PRR5-ARHGAP8 (11727945_x_at) / Fold change /veh ARHGAP8 /// PRR5-ARHGAP8 (11727945_x_at) / RFU KRTAP5-7 /// NADSYN1 (11734609_at) / Fold change /veh KRTAP5-7 /// NADSYN1 (11734609_at) / RFU RASL12 (11751679_a_at) / Fold change /veh RASL12 (11751679_a_at) / RFU CDKN2B (11736163_a_at) / Fold change /veh CDKN2B (11736163_a_at) / RFU PRF1 (11729649_at) / Fold change /veh PRF1 (11729649_at) / RFU, ZNF638 /// ZNF638-IT1 / Fold change vs veh, ZNF638 /// ZNF638-IT1 / RFU, PANK3 / Fold change vs veh, PANK3 / RFU, SH3YL1 / Fold change vs veh, SH3YL1 / RFU, ZEB2 / Fold change vs veh, ZEB2 / RFU, NRIP1 / Fold change vs veh, NRIP1 / RFU, PTTG1IP / Fold change vs veh, PTTG1IP / RFU, CAPN2 / Fold change vs veh, CAPN2 / RFU, MED14 / Fold change vs veh, MED14 / RFU, SNORA58 / Fold change vs veh, SNORA58 / RFU, C1orf63 / Fold change vs veh, C1orf63 / RFU, LRRFIP1 / Fold change vs veh, LRRFIP1 / RFU, NDUFAF7 / Fold change vs veh, NDUFAF7 / RFU, SLC12A2 / Fold change vs veh, SLC12A2 / RFU, IBTK / Fold change vs veh, IBTK / RFU, ESF1 / Fold change vs veh, ESF1 / Fold change vs veh, TMEM50B / RFU, TAOK1 / Fold change vs veh, TAOK1 / RFU, ACBD3 / Fold change vs veh, ACBD3 / RFU, TMA16 / Fold change vs veh, TMA16 / RFU, RWDD3 / Fold change vs veh, RWDD3 / RFU, BCAT1 / Fold change vs veh, BCAT1 / RFU, EDEM3 / Fold change vs veh, EDEM3 / RFU, TMEM33 / Fold change vs veh, TMEM33 / RFU, WDR75 / Fold change vs veh, WDR75 / RFU, AHCTF1 / Fold change vs veh, AHCTF1 / RFU, TFRC / Fold change vs veh, TFRC / RFU, ZDHHC17 / Fold change vs veh, ZDHHC17 / RFU, NOM1 / Fold change vs veh, NOM1 / RFU, ARL8B / Fold change vs veh, ARL8B / RFU, ZBTB11 / Fold change vs veh, ZBTB11 / RFU, TAMM41 / Fold change vs veh, TAMM41 / RFU, KIAA1704 /// LOC100996395 / Fold change vs veh, KIAA1704 /// LOC100996395 / RFU, ING1 / Fold change vs veh, ING1 / RFU, TRMT61B / Fold change vs veh, TRMT61B / RFU, FUBP3 / Fold change vs veh, FUBP3 / RFU, TP53 / Fold change vs veh, TP53 / RFU, TNKS2 / Fold change vs veh, TNKS2 / RFU, ZFP14 / Fold change vs veh, ZFP14 / RFU, ACTR2 / Fold change vs veh, ACTR2 / RFU, PPP3R1 / Fold change vs veh, PPP3R1 / RFU, PIK3R1 / Fold change vs veh, PIK3R1 / RFU, HNRNPA1 / Fold change vs veh, HNRNPA1 / RFU, RNF170 / Fold change vs veh, RNF170 / RFU, ZNF28 / Fold change vs veh, ZNF28 / RFU, RNGTT / Fold change vs veh, RNGTT / RFU, OGT / Fold change vs veh, OGT / RFU, BRD1 / Fold change vs veh, BRD1 / RFU, MARS / Fold change vs veh, MARS / RFU, ZNF655 / Fold change vs veh, ZNF655 / RFU, FAHD1 / Fold change vs veh, FAHD1 / RFU, BDP1 / Fold change vs veh, BDP1 / RFU, LRRCC1 / Fold change vs veh, LRRCC1 / RFU, ARID1A / Fold change vs veh, ARID1A / RFU, ZNF146 / Fold change vs veh, ZNF146 / RFU, ZNF330 / Fold change vs veh, ZNF330 / RFU, GPN3 / Fold change vs veh, GPN3 / RFU, C9orf123 / Fold change vs veh, C9orf123 / RFU, N4BP2L2 / Fold change vs veh, N4BP2L2 / RFU, ARFIP1 / Fold change vs veh, ARFIP1 / RFU, FAM179B / Fold change vs veh, FAM179B / RFU, BCL10 / Fold change vs veh, BCL10 / RFU, UHRF1BP1L / Fold change vs veh, UHRF1BP1L / RFU, BET1 / Fold change vs veh, BET1 / RFU, CNOT2 / Fold change vs veh, CNOT2 / RFU, ZNF268 / Fold change vs veh, ZNF268 / Fold change vs veh, ZNF507 / RFU, DGCR2 / Fold change vs veh, DGCR2 / RFU, WDSUB1 / Fold change vs veh, WDSUB1 / Fold change vs veh, HSP90B1 /// MIR3652 / RFU, ADSS / Fold change vs veh, ADSS / RFU, GK / Fold change vs veh, GK / RFU, ZNF148 / Fold change vs veh, ZNF148 / RFU, TAF9 / Fold change vs veh, TAF9 / RFU, SLC1A5 / Fold change vs veh, SLC1A5 / RFU, SLMO2 / Fold change vs veh, SLMO2 / RFU, ABCC4 / Fold change vs veh, ABCC4 / RFU, LOC101060439 /// RAP1B / Fold change vs veh, LOC101060439 /// RAP1B / RFU, RFX7 / Fold change vs veh, RFX7 / RFU, GTPBP10 / Fold change vs veh, GTPBP10 / RFU, CNEP1R1 / Fold change vs veh, CNEP1R1 / RFU, BIVM-ERCC5 /// ERCC5 / Fold change vs veh, BIVM-ERCC5 /// ERCC5 / RFU, ILF3 / Fold change vs veh, ILF3 / RFU 11762660_at / Fold change /veh 11762660_at / RFU VCAN (11757783_s_at) / Fold change /veh VCAN (11757783_s_at) / RFU DDX43 (11728927_at) / Fold change /veh DDX43 (11728927_at) / RFU KRT8 (11758188_x_at) / Fold change /veh KRT8 (11758188_x_at) / RFU NKD1 (11759106_at) / Fold change /veh NKD1 (11759106_at) / RFU SRD5A1 (11742802_a_at) / Fold change /veh SRD5A1 (11742802_a_at) / RFU TPSAB1 /// TPSB2 (11721975_s_at) / Fold change /veh TPSAB1 /// TPSB2 (11721975_s_at) / RFU GSTM3 (11746129_a_at) / Fold change /veh GSTM3 (11746129_a_at) / RFU IL23R (11737362_x_at) / Fold change /veh IL23R (11737362_x_at) / RFU TMEM51 (11727254_a_at) / Fold change /veh TMEM51 (11727254_a_at) / RFU PIWIL2 (11732686_x_at) / Fold change /veh PIWIL2 (11732686_x_at) / RFU ORM1 (11744905_x_at) / Fold change /veh ORM1 (11744905_x_at) / RFU CCDC152 (11743942_at) / Fold change /veh CCDC152 (11743942_at) / RFU ECM1 (11717891_a_at) / Fold change /veh ECM1 (11717891_a_at) / RFU IL23R (11748794_a_at) / Fold change /veh IL23R (11748794_a_at) / RFU TNFAIP8L3 (11732012_x_at) / Fold change /veh TNFAIP8L3 (11732012_x_at) / RFU MBOAT4 (11741988_at) / Fold change /veh MBOAT4 (11741988_at) / RFU 11764193_at / Fold change /veh 11764193_at / RFU TMEM53 (11763286_at) / Fold change /veh TMEM53 (11763286_at) / RFU MAGEB2 (11727129_at) / Fold change /veh MAGEB2 (11727129_at) / RFU TMEM200A (11744735_a_at) / Fold change /veh TMEM200A (11744735_a_at) / RFU CCDC152 (11751479_a_at) / Fold change /veh CCDC152 (11751479_a_at) / RFU FAM211A (11726209_a_at) / Fold change /veh FAM211A (11726209_a_at) / RFU RGS16 (11746705_a_at) / Fold change /veh RGS16 (11746705_a_at) / RFU VCAN (11755009_s_at) / Fold change /veh VCAN (11755009_s_at) / RFU RHOB (11743442_s_at) / Fold change /veh RHOB (11743442_s_at) / RFU RGS16 (11720943_a_at) / Fold change /veh RGS16 (11720943_a_at) / RFU RGS16 (11720944_at) / Fold change /veh RGS16 (11720944_at) / RFU, VPS4B / Fold change vs veh, VPS4B / RFU, CREB1 / Fold change vs veh, CREB1 / RFU, DNAJC13 / Fold change vs veh, DNAJC13 / RFU, GNAQ / Fold change vs veh, GNAQ / RFU, CDK5R1 / Fold change vs veh, CDK5R1 / RFU, ZRANB3 / Fold change vs veh, ZRANB3 / RFU, CUL4A / Fold change vs veh, CUL4A / RFU, CCNY / Fold change vs veh, CCNY / RFU, UFL1 / Fold change vs veh, UFL1 / RFU, COG3 / Fold change vs veh, COG3 / RFU, DIAPH2 / Fold change vs veh, DIAPH2 / RFU, SKA2 / Fold change vs veh, SKA2 / RFU, AFF3 / Fold change vs veh, AFF3 / RFU, LMF1 / Fold change vs veh, LMF1 / RFU, IPO11 / Fold change vs veh, IPO11 / RFU, DFFB / Fold change vs veh, DFFB / RFU, FOXP1 / Fold change vs veh, FOXP1 / RFU, CARD8 / Fold change vs veh, CARD8 / RFU, STRN3 / Fold change vs veh, STRN3 / RFU, ADK / Fold change vs veh, ADK / RFU, RASSF2 / Fold change vs veh, RASSF2 / RFU, WIPF1 / Fold change vs veh, WIPF1 / RFU, LARP1B / Fold change vs veh, LARP1B / RFU, RASA1 / Fold change vs veh, RASA1 / RFU, RB1 / Fold change vs veh, RB1 / RFU, PPFIA1 / Fold change vs veh, PPFIA1 / RFU, MAT2A / Fold change vs veh, MAT2A / RFU, CCT5 / Fold change vs veh, CCT5 / RFU, WDR92 / Fold change vs veh, WDR92 / RFU, CUX1 / Fold change vs veh, CUX1 / RFU, TTC7A / Fold change vs veh, TTC7A / RFU, TMEM135 / Fold change vs veh, TMEM135 / RFU, DEPTOR / Fold change vs veh, DEPTOR / RFU, CPM / Fold change vs veh, CPM / RFU, DNAJB6 / Fold change vs veh, DNAJB6 / RFU, CACNA2D3 / Fold change vs veh, CACNA2D3 / RFU, DTX4 / Fold change vs veh, DTX4 / RFU, TFCP2 / Fold change vs veh, TFCP2 / RFU, GMCL1 /// GMCL1P1 / Fold change vs veh, GMCL1 /// GMCL1P1 / RFU, AEBP2 / Fold change vs veh, AEBP2 / RFU, SNHG1 /// SNORD22 /// SNORD25 /// SNORD26 /// SNORD27 /// SNORD28 /// SNORD29 /// SNORD31 / Fold change vs veh, SNHG1 /// SNORD22 /// SNORD25 /// SNORD26 /// SNORD27 /// SNORD28 /// SNORD29 /// SNORD31 / Fold change (Aza/veh), C12orf56 (ProbeSet 11735607_a_at) / Fold change (ACY-1035/veh), C12orf56 (ProbeSet 11735607_a_at) / Fold change (Aza/veh), FGFR1OP (ProbeSet 11751329_s_at) / Fold change (ACY-1035/veh), FGFR1OP (ProbeSet 11751329_s_at) / Fold change (Aza/veh), VPS36 (ProbeSet 11739960_a_at) / Fold change (ACY-1035/veh), VPS36 (ProbeSet 11739960_a_at) / RFU SYPL1 (11715823_x_at) / Fold change /veh SYPL1 (11715823_x_at) / RFU IGFBP7 (11715501_s_at) / Fold change /veh IGFBP7 (11715501_s_at) / RFU REEP3 (11722064_at) / Fold change /veh REEP3 (11722064_at) / RFU IGLL1 (11728026_x_at) / Fold change /veh IGLL1 (11728026_x_at): dose or concentration left out as unconfirmed
# Conditions: ProbeSet 11723475_a_at; LIST B
structure (smiles),measurement,value
Nc1ncn([C@@H]2O[C@H](CO)[C@@H](O)[C@H]2O)c(=O)n1 [azacitidine],"Fold change vs veh, TRMT61B",0.91
